Assay results from US20260297060A1, “COMPOUNDS FOR THE DEGRADATION OF MUTANT BRAF” (C4 THERAPEUTICS, INC., priority 2023, published 2026).

Test system: A375-NRAS^Q61K cells
Test: CTGlo Cell Viability Assay, A375-NRAS^Q61K (A375.11) cells, 96 hours
Format: cell-based, human
Settings: A375.11 (A375-NRAS^Q61K) cells
Method in brief: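 Viability as CellTiter-Glo ATP luminescence after 96 h compound exposure at 37 °C; A375.11 (BRAF V600E/NRAS Q61K) cells at 250/well, top final concentration 10 μM in half-log steps. Signal was background-corrected and set relative to DMSO controls. A 4-parameter logistic fit gave GI50 (50% crossing) and Emax.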

[1] = Homo sapiens, 96 h, lowest % viability achieved

Compound	GI50 (Homo sapiens, 96 h)	GI50	Emax [1]	CTGlo A375.11 96 hours Emax (lowest % viability achieved)
CCN(C)S(=O)(=O)Nc1ccc(F)c(Oc2ccc3ncn([C@@H]4C[C@@H]5CN(C6CCC(c7ccc(NC8CCC(=O)NC8=O)cc7F)CC6)C[C@@H]5C4)c(=O)c3c2)c1C#N (single isomer, unassigned) [Compound 21]	1 to 10 µM	–	50 to 90%	–
CCN(C)S(=O)(=O)Nc1ccc(F)c(Oc2ccc3ncn([C@@H]4CCC5(CCN(C6CCC(c7cc8c(cc7F)c(N7CCC(=O)NC7=O)nn8C)CC6)CC5)C4)c(=O)c3c2)c1C#N (single isomer, unassigned) [Compound 31]	1 to 10 µM	–	< 50%	–
CCN(C)S(=O)(=O)Nc1ccc(F)c(Oc2ccc3ncn([C@H]4COC5(CCC(N6CCC(c7cc8c(cc7F)c(N7CCC(=O)NC7=O)nn8C)C(F)(F)C6)CC5)C4)c(=O)c3c2)c1C#N (single isomer, unassigned) [Compound 39]	–	< 1 µM	–	*** (<=50%)
CCN(C)S(=O)(=O)Nc1ccc(F)c(Oc2ccc3ncn([C@H]4COC5(CCN(C6CCC(c7ccc(NC8CCC(=O)NC8=O)cc7F)CC6)CC5)C4)c(=O)c3c2F)c1C#N (single isomer, unassigned) [Compound 50]	< 1 µM	–	< 50%	–
CCN(C)S(=O)(=O)Nc1ccc(F)c(Oc2ccc3ncn([C@@H]4COC5(CCN(C6CCC(c7ccc(NC8CCC(=O)NC8=O)cc7F)CC6)CC5)C4)c(=O)c3c2F)c1C#N (single isomer, unassigned) [Compound 52]	–	> 10 µM	50 to 90%	–
CCN(C)S(=O)(=O)Nc1ccc(F)c(Oc2ccc3ncc([C@@H]4COC5(CCN(C6CCC(c7cc8c(cc7F)c(N7CCC(=O)NC7=O)nn8C)CC6)CC5)C4)nc3c2)c1C#N (single isomer, unassigned) [Compound 54]	< 1 µM	–	< 50%	–
CCN(C)S(=O)(=O)Nc1ccc(F)c(Oc2ccc3ncc([C@H]4COC5(CCN(C6CCC(c7ccc(NC8CCC(=O)NC8=O)cc7F)CC6)CC5)C4)nc3c2)c1C#N (single isomer, unassigned) [Compound 58]	< 1 µM	–	< 50%	–
CCN(C)S(=O)(=O)Nc1ccc(F)c(Oc2ccc3ncc([C@@H]4COC5(CCN(C6CCC(c7ccc(NC8CCC(=O)NC8=O)cc7F)CC6)CC5)C4)nc3c2)c1C#N (single isomer, unassigned) [Compound 60]	–	< 1 µM	< 50%	–
CCN(C)S(=O)(=O)Nc1ccc(F)c(Oc2ccc3ncn([C@H]4COC5(CCN(C6CC(c7ccc(NC8CCC(=O)NC8=O)cc7F)C6)CC5)C4)c(=O)c3c2)c1C#N (single isomer, unassigned) [Compound 62]	< 1 µM	–	< 50%	–
CCN(C)S(=O)(=O)Nc1ccc(F)c(Nc2ccc3ncn([C@H]4COC5(CCN(C6CCC(c7cc8c(cc7F)c(N7CCC(=O)NC7=O)nn8C)CC6)CC5)C4)c(=O)c3c2)c1C#N (single isomer, unassigned) [Compound 64]	–	1 to 10 µM	50 to 90%	–
CCN(C)S(=O)(=O)Nc1ccc(F)c(Nc2ccc3ncn([C@H]4COC5(CCN(C6CCC(c7cc8c(cc7F)c(N7CCC(=O)NC7=O)nn8C)CC6)CC5)C4)c(=O)c3c2F)c1C#N (single isomer, unassigned) [Compound 67]	< 1 µM	–	< 50%	–
CCN(C)S(=O)(=O)Nc1ccc(F)c(Oc2ccc3ncn([C@H]4COC5(CCN(C6CC(c7cc8c(cc7F)c(N7CCC(=O)NC7=O)nn8C)C6)CC5)C4)c(=O)c3c2)c1C#N (single isomer, unassigned) [Compound 70]	< 1 µM	–	< 50%	–
CCN(C)S(=O)(=O)Nc1ccc(F)c(Oc2ccc3ncn([C@H]4COC5(CCN(C6CCC(c7cc8c(cc7F)c(N7CCC(=O)NC7=O)nn8C)CC6)CC5)C4)c(=O)c3c2)c1F (single isomer, unassigned) [Compound 71]	< 1 µM	–	< 50%	–
CN(CCO)S(=O)(=O)Nc1ccc(F)c(Oc2ccc3ncn([C@H]4COC5(CCN(C6CCC(c7cc8c(cc7F)c(N7CCC(=O)NC7=O)nn8C)CC6)CC5)C4)c(=O)c3c2)c1C#N (single isomer, unassigned) [Compound 73]	1 to 10 µM	–	< 50%	–
CN(CCO)S(=O)(=O)Nc1ccc(F)c(Oc2ccc3ncn([C@H]4COC5(CCN(C6CCC(c7ccc(NC8CCC(=O)NC8=O)cc7F)CC6)CC5)C4)c(=O)c3c2)c1C#N (single isomer, unassigned) [Compound 76]	< 1 µM	–	< 50%	–
CCN(C)S(=O)(=O)Nc1ccc(F)c(Oc2ccc3ncn([C@H]4COC5(CCN(C6CCC(c7ccc(NC8CCC(=O)NC8=O)cc7F)CC6)CC5)C4)c(=O)c3c2)c1F (single isomer, unassigned) [Compound 78]	< 1 µM	–	< 50%	–
CN(CCO)S(=O)(=O)Nc1ccc(F)c(Oc2ccc3ncn(C4CC5(CCN(C6CCC(c7ccc(NC8CCC(=O)NC8=O)cc7F)CC6)CC5)C4)c(=O)c3c2)c1C#N (single isomer, unassigned) [Compound 79, 6-[2-cyano-6-fluoro-3-[[2-hydroxyethyl(methyl)sulfamoyl]amino]phenoxy]-3-[7-[4-[4-[(2,6-dioxo-3-piperidyl)amino]-2-fluoro-phenyl]cyclohexyl]-7-azaspiro[3.5]nonan-2-yl]-4-oxo-quinazoline]	–	1 to 10 µM	50 to 90%	–
CN(CCO)S(=O)(=O)Nc1ccc(F)c(Oc2ccc3ncn(C4CC5(CCN(C6CCC(c7cc8c(cc7F)c(N7CCC(=O)NC7=O)nn8C)CC6)CC5)C4)c(=O)c3c2)c1C#N (single isomer, unassigned) [Compound 81, 6-[2-cyano-6-fluoro-3-[[2-hydroxyethyl(methyl)sulfamoyl]amino]phenoxy]-3-[7-[4-[3-(2,4-dioxohexahydropyrimidin-1-yl)-5-fluoro-1-methyl-indazol-6-yl]cyclohexyl]-7-azaspiro[3.5]nonan-2-yl]-4-oxo-quinazoline]	1 to 10 µM	–	50 to 90%	–

Continued, in another order:

GI50 (Homo sapiens, 96 h)	GI50	Compound	Emax [1]	CTGlo A375.11 96 hours Emax (lowest % viability achieved)
< 1 µM	–	CCN(C)S(=O)(=O)Nc1ccc(F)c(Oc2ccc3ncn([C@H]4COC5(CCN(C6CCC(c7ccc(N[C@H]8CCC(=O)NC8=O)cc7F)CC6)CC5)C4)c(=O)c3c2)c1C#N (single isomer, unassigned) [Compound 3]	< 50%	–
< 1 µM	–	CCN(C)S(=O)(=O)Nc1ccc(F)c(Oc2ccc3ncn([C@H]4COC5(CCN(C6CCC(c7ccc(N[C@@H]8CCC(=O)NC8=O)cc7F)CC6)CC5)C4)c(=O)c3c2)c1C#N (single isomer, unassigned) [Compound 4]	< 50%	–
< 1 µM	–	CCN(C)S(=O)(=O)Nc1ccc(F)c(Oc2ccc3ncn(C4CC5(CCN(C6CCC(c7ccc(NC8CCC(=O)NC8=O)cc7F)CC6)CC5)C4)c(=O)c3c2)c1C#N (single isomer, unassigned) [Compound 6, 6-[2-cyano-3-[[ethyl(methyl)sulfamoyl]amino]-6-fluoro-phenoxy]-3-[7-[4-[4-[(2,6-dioxo-3-piperidyl)amino]-2-fluoro-phenyl]cyclohexyl]-7-azaspiro[3.5]nonan-2-yl]-4-oxo-quinazoline]	< 50%	–
< 1 µM	–	CCN(C)S(=O)(=O)Nc1ccc(F)c(Oc2ccc3ncn(C4CC5(CCN(C6CCC(c7cc8c(cc7F)c(N7CCC(=O)NC7=O)nn8C)CC6)CC5)C4)c(=O)c3c2)c1C#N (single isomer, unassigned) [Compound 8, 6-[2-cyano-3-[[ethyl(methyl)sulfamoyl]amino]-6-fluoro-phenoxy]-3-[7-[4-[3-(2,4-dioxohexahydropyrimidin-1-yl)-5-fluoro-1-methyl-indazol-6-yl]cyclohexyl]-7-azaspiro[3.5]nonan-2-yl]-4-oxo-quinazoline]	< 50%	–
< 1 µM	–	CCN(C)S(=O)(=O)Nc1ccc(F)c(Oc2ccc3ncn([C@H]4CCC5(CCN(C6CCC(c7ccc(NC8CCC(=O)NC8=O)cc7F)CC6)CC5)C4)c(=O)c3c2)c1C#N (single isomer, unassigned) [Compound 24]	< 50%	–
< 1 µM	–	CCN(C)S(=O)(=O)Nc1ccc(F)c(Oc2ccc3ncn([C@H]4COC5(CCN(C6CCC(c7cc8c(cc7F)c(N7CCC(=O)NC7=O)nn8C)CC6F)CC5)C4)c(=O)c3c2)c1C#N (single isomer, unassigned) [Compound 28]	< 50%	–
< 1 µM	–	CCN(C)S(=O)(=O)Nc1ccc(F)c(Oc2ccc3ncn([C@H]4CCC5(CCN(C6CCC(c7cc8c(cc7F)c(N7CCC(=O)NC7=O)nn8C)CC6)CC5)C4)c(=O)c3c2)c1C#N (single isomer, unassigned) [Compound 33]	< 50%	–
< 1 µM	–	CCN(C)S(=O)(=O)Nc1ccc(F)c(Oc2ccc3ncn([C@H]4COC5(CCC(N6CCC(c7cc8c(cc7F)c(N7CCC(=O)NC7=O)nn8C)C(F)(F)C6)CC5)C4)c(=O)c3c2)c1C#N (single isomer, unassigned) [Compound 38]	< 50%	–
< 1 µM	–	CCN(C)S(=O)(=O)Nc1ccc(F)c(Oc2ccc3ncn([C@H]4COC5(CCN(C6CCC(c7cc8c(cc7F)c(N7CCC(=O)NC7=O)nn8C)CC6)CC5)C4)c(=O)c3c2F)c1C#N (single isomer, unassigned) [Compound 41]	< 50%	–
< 1 µM	–	CCN(C)S(=O)(=O)Nc1ccc(F)c(Oc2ccc3ncn([C@H]4COC5(CCN(C6CCC(c7cc8c(cc7F)c(N7CCC(=O)NC7=O)nn8C)CC6O)CC5)C4)c(=O)c3c2)c1C#N (single isomer, unassigned) [Compound 43]	50 to 90%	–
< 1 µM	–	CCN(C)S(=O)(=O)Nc1ccc(F)c(Oc2ccc3ncn([C@@H]4COC5(CCN(C6CCC(c7cc8c(cc7F)c(N7CCC(=O)NC7=O)nn8C)CC6)CC5)C4)c(=O)c3c2F)c1C#N (single isomer, unassigned) [Compound 46]	< 50%	–
< 1 µM	–	CCN(C)S(=O)(=O)Nc1ccc(F)c(Oc2ccc3ncc([C@H]4COC5(CCN(C6CCC(c7cc8c(cc7F)c(N7CCC(=O)NC7=O)nn8C)CC6)CC5)C4)nc3c2)c1C#N (single isomer, unassigned) [Compound 48]	< 50%	–
